In article PMC3726261 (Cancer, 2012):
Entries after “also recorded” stand apart in the source; their conditions may differ. Marks after values point to notes of the source that are not given here.

Test system: patients with advanced solid malignancies
Experiment: Phase 1 dose-escalation study: safety, treatment-emergent adverse events
Format: in vivo
Settings: for Abdominal distension (related TEAE) / Anemia (related TEAE) / Anorexia (related TEAE) / At least 1 related TEAE / Chest discomfort (related TEAE) / Constipation (related TEAE) / Cough (related TEAE) / Dyspepsia (related TEAE) / Dyspnea (related TEAE) / Edema (related TEAE) / Face edema (related TEAE) / Fatigue (related TEAE) / Fluid retention (related TEAE) / Increased appetite (related TEAE) / Insomnia (related TEAE) / Muscle spasms (related TEAE) / Myalgia (related TEAE) / Nausea (related TEAE) / Peripheral edema (related TEAE) / Pleural effusion (related TEAE) / Rash (related TEAE) / Vomiting (related TEAE) / Weight increase (related TEAE): N = 31 patients
[1] = Grade 3 (dose-limiting toxicity)
[2] = Patient 20, 0.75 mg twice daily, by cycle 3, day 1, CTCAE grade 4

Cc1cc(Oc2ccc3nc(COc4ccc(CC5SC(=O)NC5=O)cc4)n(C)c3c2)cc(C)c1N (stereo not shown) [Efatutazone]
Dose-limiting toxicities (0.10-, 0.25-, and 1.15-mg cohorts, not dose dependent): Three episodes of dose-limiting toxicities; also recorded: Three DLTs related to fluid retention | Patients with at least 1 treatment-related AE (31 patients): 100% | Grade ≥4 edema (31 treated patients): No patient | Abdominal distension (related TEAE) (Grade 1): 1 (3.2) No. (%) | Anemia (related TEAE) (Grade 1): 5 (16.1) No. (%) | Anorexia (related TEAE) (Grade 1): 3 (9.7) No. (%) | At least 1 related TEAE (Grade 1): 13 (41.9) No. (%) | Chest discomfort (related TEAE) (Grade 1): 1 (3.2) No. (%) | Constipation (related TEAE) (Grade 1): 2 (6.5) No. (%) | Cough (related TEAE) (Grade 1): 3 (9.7) No. (%) | Dyspepsia (related TEAE) (Grade 1): 2 (6.5) No. (%) | Dyspnea (related TEAE) (Grade 1): 4 (12.9) No. (%) | Edema (related TEAE) (Grade 1): 1 (3.2) No. (%) | Face edema (related TEAE) (Grade 1): 2 (6.5) No. (%) | Fatigue (related TEAE) (Grade 1): 10 (32.3) No. (%) | Fluid retention (related TEAE) (Grade 1): 2 (6.5) No. (%) | Increased appetite (related TEAE) (Grade 1): 3 (9.7) No. (%) | Insomnia (related TEAE) (Grade 1): 1 (3.2) No. (%) | Muscle spasms (related TEAE) (Grade 1): 1 (3.2) No. (%) | Myalgia (related TEAE) (Grade 1): 2 (6.5) No. (%) | Nausea (related TEAE) (Grade 1): 5 (16.1) No. (%) | Peripheral edema (related TEAE) (Grade 1): 8 (25.8) No. (%) | Pleural effusion (related TEAE) (Grade 1): 1 (3.2) No. (%) | Rash (related TEAE) (Grade 1): 2 (6.5) No. (%) | Vomiting (related TEAE) (Grade 1): 2 (6.5) No. (%) | Weight increase (related TEAE) (Grade 1): 17 (54.8) No. (%) | Abdominal distension (related TEAE) (Grade 2): 1 (3.2) No. (%) | Anemia (related TEAE) (Grade 2): 3 (9.7) No. (%) | Anorexia (related TEAE) (Grade 2): 0 No. (%) | At least 1 related TEAE (Grade 2): 11 (35.5) No. (%) | Chest discomfort (related TEAE) (Grade 2): 0 No. (%) | Constipation (related TEAE) (Grade 2): 0 No. (%) | Cough (related TEAE) (Grade 2): 1 (3.2) No. (%) | Dyspepsia (related TEAE) (Grade 2): 0 No. (%) | Dyspnea (related TEAE) (Grade 2): 0 No. (%) | Edema (related TEAE) (Grade 2): 0 No. (%) | Face edema (related TEAE) (Grade 2): 0 No. (%) | Fatigue (related TEAE) (Grade 2): 2 (6.5) No. (%) | Fluid retention (related TEAE) (Grade 2): 1 (3.2) No. (%) | Increased appetite (related TEAE) (Grade 2): 0 No. (%) | Insomnia (related TEAE) (Grade 2): 1 (3.2) No. (%) | Muscle spasms (related TEAE) (Grade 2): 1 (3.2) No. (%) | Myalgia (related TEAE) (Grade 2): 0 No. (%) | Nausea (related TEAE) (Grade 2): 1 (3.2) No. (%) | Peripheral edema (related TEAE) (Grade 2): 7 (22.6) No. (%) | Pleural effusion (related TEAE) (Grade 2): 1 (3.2) No. (%) | Rash (related TEAE) (Grade 2): 0 No. (%) | Vomiting (related TEAE) (Grade 2): 1 (3.2) No. (%) | Weight increase (related TEAE) (Grade 2): 0 No. (%) | Edema (related TEAE) [1]: 2 (6.5) ^b No. (%) | Pleural effusion (related TEAE) [1]: 1 (3.2) ^b No. (%) | Abdominal distension (related TEAE) (Grade 3): 0 No. (%) | Anemia (related TEAE) (Grade 3): 4 (12.9) No. (%) | Anorexia (related TEAE) (Grade 3): 0 No. (%) | At least 1 related TEAE (Grade 3): 6 (19.4) No. (%) | Chest discomfort (related TEAE) (Grade 3): 1 (3.2) No. (%) | Constipation (related TEAE) (Grade 3): 0 No. (%) | Cough (related TEAE) (Grade 3): 0 No. (%) | Dyspepsia (related TEAE) (Grade 3): 0 No. (%) | Dyspnea (related TEAE) (Grade 3): 1 (3.2) No. (%) | Face edema (related TEAE) (Grade 3): 0 No. (%) | Fatigue (related TEAE) (Grade 3): 2 (6.5) No. (%) | Fluid retention (related TEAE) (Grade 3): 0 No. (%) | Increased appetite (related TEAE) (Grade 3): 0 No. (%) | Insomnia (related TEAE) (Grade 3): 0 No. (%) | Muscle spasms (related TEAE) (Grade 3): 0 No. (%) | Myalgia (related TEAE) (Grade 3): 0 No. (%) | Nausea (related TEAE) (Grade 3): 0 No. (%) | Peripheral edema (related TEAE) (Grade 3): 1 (3.2) No. (%) | Rash (related TEAE) (Grade 3): 0 No. (%) | Vomiting (related TEAE) (Grade 3): 0 No. (%) | Weight increase (related TEAE) (Grade 3): 0 No. (%) | Abdominal distension (related TEAE) (Grade 4): 0 No. (%) | Anemia (related TEAE) (Grade 4): 0 No. (%) | Anorexia (related TEAE) (Grade 4): 0 No. (%) | At least 1 related TEAE (Grade 4): 1 (3.2) ^a No. (%) | Chest discomfort (related TEAE) (Grade 4): 0 No. (%) | Constipation (related TEAE) (Grade 4): 0 No. (%) | Cough (related TEAE) (Grade 4): 0 No. (%) | Dyspepsia (related TEAE) (Grade 4): 0 No. (%) | Dyspnea (related TEAE) (Grade 4): 0 No. (%) | Edema (related TEAE) (Grade 4): 0 No. (%) | Face edema (related TEAE) (Grade 4): 0 No. (%) | Fatigue (related TEAE) (Grade 4): 0 No. (%) | Fluid retention (related TEAE) (Grade 4): 0 No. (%) | Increased appetite (related TEAE) (Grade 4): 0 No. (%) | Insomnia (related TEAE) (Grade 4): 0 No. (%) | Muscle spasms (related TEAE) (Grade 4): 0 No. (%) | Myalgia (related TEAE) (Grade 4): 0 No. (%) | Nausea (related TEAE) (Grade 4): 0 No. (%) | Peripheral edema (related TEAE) (Grade 4): 0 No. (%) | Pleural effusion (related TEAE) (Grade 4): 0 No. (%) | Rash (related TEAE) (Grade 4): 0 No. (%) | Vomiting (related TEAE) (Grade 4): 0 No. (%) | Weight increase (related TEAE) (Grade 4): 0 No. (%) | Abdominal distension (related TEAE) (Overall): 2 (6.5) No. (%) | Anemia (related TEAE) (Overall): 12 (38.7) No. (%) | Anorexia (related TEAE) (Overall): 3 (9.7) No. (%) | At least 1 related TEAE (Overall): 31 (100) No. (%) | Chest discomfort (related TEAE) (Overall): 2 (6.5) No. (%) | Constipation (related TEAE) (Overall): 2 (6.5) No. (%) | Cough (related TEAE) (Overall): 4 (12.9) No. (%) | Dyspepsia (related TEAE) (Overall): 2 (6.5) No. (%) | Dyspnea (related TEAE) (Overall): 5 (16.1) No. (%) | Edema (related TEAE) (Overall): 3 (9.7) No. (%) | Face edema (related TEAE) (Overall): 2 (6.5) No. (%) | Fatigue (related TEAE) (Overall): 14 (45.2) No. (%) | Fluid retention (related TEAE) (Overall): 3 (9.7) No. (%) | Increased appetite (related TEAE) (Overall): 3 (9.7) No. (%) | Insomnia (related TEAE) (Overall): 2 (6.5) No. (%) | Muscle spasms (related TEAE) (Overall): 2 (6.5) No. (%) | Myalgia (related TEAE) (Overall): 2 (6.5) No. (%) | Nausea (related TEAE) (Overall): 6 (19.4) No. (%) | Peripheral edema (related TEAE) (Overall): 16 (51.6) No. (%) | Pleural effusion (related TEAE) (Overall): 3 (9.7) No. (%) | Rash (related TEAE) (Overall): 2 (6.5) No. (%) | Vomiting (related TEAE) (Overall): 3 (9.7) No. (%) | Weight increase (related TEAE) (Overall): 17 (54.8) No. (%) | Serum cholesterol, peak [2]: 515 mg/dL | Serum triglycerides, peak [2]: 4525 mg/dL | Cardiac dysfunction (serial electrocardiograms and echocardiograms) (all dose levels): did not reveal any evidence of cardiac dysfunction; also recorded: no measurable cardiotoxicity | Patients with anemia (treatment-related AE) (all dose levels): 38.7% | Patients with fatigue (treatment-related AE) (all dose levels): 45.2% | Patients with peripheral edema (all dose levels): 51.6% | Patients with weight increase (treatment-related AE) (all dose levels): 54.8% | Maximum tolerated dose (MTD) (doses 0.10 to 1.15 mg PO twice daily): not reached | Patients with grade 4 TEAEs (regardless of attribution (bronchospasm; hypercholesterolemia and hypertriglyceridemia)): Two patients
